Data taken from US20030073850A1, “4-Imidazole derivatives of benzyl and restricted benzyl sulfonamides, sulfamides, ureas, carbamates, and amides and their use” (priority 1998, published 2003).

Columns and labels:
[1] = test system: anesthetized dogs; experiment: Mean arterial pressure (MAP) in anesthetized dogs; format: in vivo, dog; settings: iv dose causing a maximum increase in MAP of 20 mm Hg, anesthetized female Beagle dogs
Description: (§1) Female Beagle dogs (Marshall Farms, North Rose, N.Y.) greater that 2 years of age and weighing between 12 and 15 kg were used in these studies. At least 2 weeks prior to any agonist dosing, dogs were instrumented for the chronic measurement of arterial blood pressure by implanting a telemetry transducer/transmitter (TA11PA-C40, Data Sciences International, St. Paul, Minn.) into a carotid artery.
(§2) On the test day, dogs fasted since the previous afternoon were pre-anesthetized with thiopental sodium 15 mg/kg i.v. (Pentothal™, Abbott) and intubated. Anesthesia was maintained by allowing the dog to spontaneously breathe a mixture of isoflurane (2.5 to 3 volume %) and oxygen delivered by a Narkomed Standard anesthesia system (North American Drager, Telford, Pa.). An Abbocath-T™ i.v. catheter (18-G, Abbott) was inserted into the cephalic vein for the administration of agonists. A telemetry receiver (RA1310, DataSciences) was placed under the head of each dog and was interfaced to a computerized data acquisition system (Modular Instruments Inc.(MI2), Malvern, Pa.) which allowed for the continuous calibrated recording of arterial blood pressure which was electronically filtered to determine its mean value (MAP).
(§3) From the resulting dose response curve, an ED5 value, for the dose causing a maximum increase in IUP of 5 mm Hg, could be estimated. An ED20 value for the dose causing a maximum increase in MAP of 20 mm Hg could also be estimated. A selectivity ratio of MAP ED20 vs. IUP ED, was calculated.

[2] = test system: anesthetized dogs; experiment: Intraurethral pressure (IUP) in anesthetized dogs; format: in vivo, dog
Description: as §1, §2
Dogs with chronic telemetry implants anesthetized as described above were placed in dorsal recumbency and a balloon catheter was inserted into the urethral orifice and advanced approximately 15 cm until the tip was well inside the bladder. The balloon was then inflated with 1 ml of room air and the catheter slowly withdrawn until resistance (corresponding to the bladder neck) was evident. The balloon was then deflated and the catheter withdrawn additional 2 cm. The balloon was then reinflated and its catheter port connected to a Gould Statham P23Dd pressure transducer interfaced to a computerized data acquisition system (Modular Instruments, Inc., Malvern, Pa.) for the measurement of the intraurethral pressure. Increasing iv doses of test agonists were administered and the maximum effect of each dose on IUP was recorded. The effect of each dose was allowed to return to baseline before the next dose was given.
as §3

[3] = target: T1, α1d (rat receptor expressed in mouse fibroblasts) (Rattus norvegicus, UniProt P23944); experiment: Radioligand binding, [3H]-prazosin, α1d; settings: rat receptor expressed in mouse fibroblasts, [3H]-prazosin; read-out: Radioligand Binding Ki α1d (Rat)
T1 construct: expressed in transfected cells; host or cells: mouse fibroblasts
T1 sequence (P23944 1-561): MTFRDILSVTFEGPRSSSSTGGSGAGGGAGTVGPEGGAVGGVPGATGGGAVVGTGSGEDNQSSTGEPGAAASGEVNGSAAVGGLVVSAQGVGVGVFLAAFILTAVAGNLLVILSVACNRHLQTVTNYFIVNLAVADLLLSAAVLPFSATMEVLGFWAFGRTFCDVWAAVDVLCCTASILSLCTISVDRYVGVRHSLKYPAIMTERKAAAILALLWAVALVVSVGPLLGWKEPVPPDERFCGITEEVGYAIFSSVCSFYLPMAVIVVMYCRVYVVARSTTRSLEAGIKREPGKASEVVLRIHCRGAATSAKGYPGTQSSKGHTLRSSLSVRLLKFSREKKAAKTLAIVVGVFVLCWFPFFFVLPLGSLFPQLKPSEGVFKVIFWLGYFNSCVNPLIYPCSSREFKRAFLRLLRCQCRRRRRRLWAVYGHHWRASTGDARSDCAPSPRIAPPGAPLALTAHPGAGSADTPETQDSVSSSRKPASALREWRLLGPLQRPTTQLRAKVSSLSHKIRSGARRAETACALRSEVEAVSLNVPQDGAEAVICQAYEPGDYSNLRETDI
Procedure, shortened: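 [3H]-prazosin radioligand displacement; α1A from rat submaxillary gland tissue, α1b hamster and α1d rat receptors each expressed in mouse fibroblasts.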

- melting point: 223 to 226 °C
- Mean MAP ED20 [1]: 109.1 nmol/kg
- Ki [3]: 10 µM
Compound: CCS(=O)(=O)Nc1cccc2c1OCCC2c1c[nH]cn1 (single isomer, unassigned; (+)) [Example 95, (+) N-[4-(1H-imidazol-4-yl)-3,4-dihydro-2H-chromen-8-yl]ethanesulfonamide]
- ED (5 mm Hg) ([2]; Canis lupus familiaris, iv dose causing a maximum increase in IUP of 5 mm Hg, anesthetized female Beagle dogs, read-out: Mean IUP ED5): 0.113 µmol/kg
- Mean Selectivity Ratio MAP ED20/IUP ED5 ([2]; anesthetized dogs, iv): 0.99
